# Test results published in the C3SDB collision cross section collection.
# Values joined by “and” are separate entries in the source; they are usually repeats but may differ in a detail not shown here. Identical values can stand only once.
# Conditions: [M+H]+; instrument: TW; Major Mix IMS/Tof Calibration Kit (Waters)
row,collision cross section (N2),Structure (SMILES)
1,150.8 Å²,Nc1ccc(S(=O)(=O)Nc2ccccn2)cc1 [Sulfapyridine]
2,170.4 Å²,CN1C(C(=O)Nc2ccccn2)=C(O)c2sccc2S1(=O)=O [Tenoxicam]
3,164.7 Å²,CN(C)CCC=C1c2ccccc2C=Cc2ccccc21 [Cyclobenzaprine]
4,164.5 Å²,CN(C)CCC(c1ccc(Cl)cc1)c1ccccn1 (stereo not given) [Chlorphenamine]
5,189.4 Å²,CN1CC(=O)N2[C@H](c3ccc4c(c3)OCO4)c3[nH]c4ccccc4c3C[C@@H]2C1=O [Tadalafil]
6,160.6 Å²,CN(C)CCc1c[nH]c2ccc(C[C@H]3COC(=O)N3)cc12 [Zolmitriptan]
7,204.7 Å²,COc1ccc(Cl)cc1C(=O)NCCc1ccc(S(=O)(=O)NC(=O)NC2CCCCC2)cc1 [Glyburide]
8,198.1 Å²,COc1cc2c(cc1OC)C(=O)C(CC1CCN(Cc3ccccc3)CC1)C2 (stereo not given) [Donepezil]
9,211.5 Å²,Fc1ccc(C(c2ccc(F)cc2)N2CCN(C/C=C/c3ccccc3)CC2)cc1 [Flunarizine]
10,201 Å²,CC(CN1CCN(CCOCCO)CC1)CN1c2ccccc2Sc2ccccc21 (stereo not given) [Dixyrazine]
11,172.9 Å²,CNC[C@@H](C)CN1c2ccccc2S(=O)c2ccc(OC)cc21 (stereo not given in full) [Levomepromazine-M N-desmethyl sulfoxide]
12,167.3 Å²,CN(C)CCC=C1c2ccccc2CSc2ccccc21 [Dosulepin]
13,186 Å²,FC(F)(F)c1ccc2c(c1)C(=CCCN1CCNCC1)c1ccccc1S2 [Flupentixol-M N-desalkyl]
14,212.1 Å²,COC(=O)C1=C(C)NC(C)=C(C(=O)OCCN(C)Cc2ccccc2)C1c1cccc([N+](=O)[O-])c1 (stereo not given) [Nicardipine]
15,160.3 Å²,CN(C)CCc1c[nH]c2ccc(Cn3cncn3)cc12 [Rizatriptan]
16,162.7 Å²,CC(C)NCC(O)COc1cccc2ccccc12 (stereo not given) [Propranolol]
17,178.8 Å²,CN1CCN(C2=Nc3cc(Cl)ccc3Nc3ccccc32)CC1 [Clozapine]
18,166.8 Å²,CC(=O)CC(c1ccccc1)c1c(O)c2ccccc2oc1=O (stereo not given) [Warfarin]
19,176.6 Å²,CC(=O)c1ccc2c(c1)N(CCCN(C)C)c1ccccc1S2 [Acepromazine]
20,162.5 Å²,O=C(NCCN1CCOCC1)c1ccc(Cl)cc1 [Moclobemide]
21,149.6 Å²,c1ccc2c(CC3=NCCN3)cccc2c1 [Naphazoline]
22,249.8 Å²,COC(=O)C1=C(C)NC(C)=C(C(=O)OC(C)(C)CN(C)CCC(c2ccccc2)c2ccccc2)C1c1cccc([N+](=O)[O-])c1 (stereo not given) [Lercanidipine]
23,215.9 Å²,O=C1NCCN1CCN1CCC(c2cn(-c3ccc(F)cc3)c3ccc(Cl)cc23)CC1 [Sertindol]
24,182.1 Å²,Cc1ccc(O)c([C@H](CCN(C(C)C)C(C)C)c2ccccc2)c1 [Tolterodine]
25,163.3 Å²,CNCCCN1c2ccccc2CCc2ccccc21 [Imipramine-M Nor]

# Second part, the compound before the results:
row,Structure (SMILES),collision cross section (N2)
1,CC(C)(C)NCC(O)c1ccccc1Cl (stereo not given) [Tulobuterol],150.5 Å²
2,COc1ccc(CCN(C)CCCC(C#N)(c2ccc(OC)c(OC)c2)C(C)C)cc1OC (stereo not given) [Verapamil],210.2 Å²
3,NC(=O)C(CCN1CCC(O)(c2ccc(Cl)cc2)CC1)(c1ccccc1)c1ccccc1 [Loperamid-M didesmethyl],211.9 Å²
4,CCCCNC(=O)NS(=O)(=O)c1ccc(C)cc1 [Tolbutamide],163 Å²
5,CCOC(=O)C1(c2ccccc2)CCN(C)CC1 [Pethidine],158.5 Å²
6,OCCN(CCO)c1nc(N2CCCCC2)c2nc(N(CCO)CCO)nc(N3CCCCC3)c2n1 [Dipyridamole],227.5 Å²
7,COc1ccc(C(CN(C)C)C2(O)CCCCC2)cc1 (stereo not given) [Venlafaxine],171.6 Å²
8,C[C@H](CS)C(=O)N1CCC[C@H]1C(=O)O [Captopril],142.5 Å²
9,O=S1c2ccccc2/C(=C\CCN2CCN(CCO)CC2)c2cc(C(F)(F)F)ccc21 (stereo not given) [Flupentixol-M sulphoxide],196.8 Å²
10,CCOC(=O)c1ccc(N)cc1 [Benzocaine],148.2 Å²
11,CN1[C@H]2CC[C@@H]1[C@@H](C(=O)O)[C@@H](OC(=O)c1ccccc1)C2 [Benzoylecgonine],167.3 Å²
12,CN1C(=O)CN=C(c2ccccc2F)c2cc(N)ccc21 [Flunitrazepam-M 7-amino],163.1 Å²
13,CC(C)(C)NCC(O)COc1cccc2c1C[C@H](O)[C@H](O)C2 (stereo not given in full) [Nadolol],172 Å²
14,CCCc1nc(C)c2c(=O)nc(-c3cc(S(=O)(=O)N4CCN(CC)CC4)ccc3OCC)[nH]n12 [Vardenafil],225.8 Å²
15,CC(C)NCC(O)COc1ccc(CC(N)=O)cc1 (stereo not given) [Atenolol],159.5 Å²
16,COc1cccc([C@@]2(O)CCCC[C@@H]2CN(C)C)c1 [Tramadol],161.4 Å²
17,C[C@]12C[C@@H]3C[C@](C)(C1)C[C@@](N)(C3)C2 [Memantine],146.6 Å²
18,Cn1c(=O)c2c(ncn2C)n(C)c1=O [Caffeine],138.3 Å²

row,Structure (SMILES),collision cross section (N2)
1,CCOC(=O)[C@H](CCc1ccccc1)N[C@@H](C)C(=O)N1[C@H](C(=O)O)C[C@H]2CCCC[C@@H]21 [Trandolapril],203.5 Å²
2,O=C1CC[C@@]2(O)[C@H]3Cc4ccc(O)c5c4[C@@]2(CCN3CC2CC2)[C@H]1O5 [Naltrexone],176.5 Å²
3,COc1cc2c(cc1OC)C1CC(=O)C(CC(C)C)CN1CC2 (stereo not given) [Tetrabenazine],182.6 Å²
4,COCCc1ccc(OCC(O)CNC(C)C)cc1 (stereo not given) [Metoprolol],172.7 Å²
5,COc1cc(CCNCc2ccccc2OC)c(OC)cc1Cl [25C-NBOMe],177.6 Å²
6,CN/C(=N\C#N)NCCSCc1nc[nH]c1C [Cimetidine],156.5 Å²
7,Fc1ccccc1C1=NCC(=S)N(CC(F)(F)F)c2ccc(Cl)cc21 [Quazepam],174.9 Å²
8,CNC(C)C(=O)c1ccc2c(c1)OCO2 (stereo not given) [Methylone],147.3 Å²
9,COC(=O)[C@@H]1CC2=CC(=O)CC[C@]2(C)[C@@]23O[C@@H]2C[C@@]2(C)[C@@H](CC[C@@]24CCC(=O)O4)[C@H]13 [Eplerenone],197.6 Å²
10,Cc1nn(C)c2c1C(c1ccccc1F)=NCC(=O)N2C [Zolazepam],162.3 Å²
11,Clc1cccc(N2CCNCC2)c1 [mCPP],144.3 Å²
12,CNC(=O)CSP(=S)(OC)OC [Dimethoate],139.9 Å²
13,CCCc1nn(C)c2c(=O)[nH]c(-c3cc(S(=O)(=O)N4CCN(C)CC4)ccc3OCC)nc12 [Sildenafil],212.7 Å²
14,COc1ccc2c3c1O[C@H]1C(OC(C)=O)=CC[C@H]4[C@@H](C2)N(C)CC[C@]314 [Thebacon],178.2 Å²
15,CC(C)(C)NCC(O)c1cc(O)cc(O)c1 (stereo not given) [Terbutaline],154.9 Å²
16,CCN(C(C)=O)c1cccc(-c2ccnc3c(C#N)cnn23)c1 [Zaleplon],173.5 Å²
17,COc1ccc2c(c1)[C@]13CCCC[C@@H]1[C@H](C2)N(C)CC3 [Dextromethorphan],166.3 Å²
18,CCN(CC)CCN1C(=O)CN=C(c2ccccc2F)c2cc(Cl)ccc21 [Flurazepam],185.3 Å²

# Conditions: [M+H-H2O]+; instrument: DT; stepped-field
row,collision cross section (N2),Structure (SMILES)
1,383.4 Å²,OCC1OC(OC2C(CO)OC(OC3C(CO)OC(OC4C(CO)OC(OC5C(CO)OC(OC6C(CO)OC(OC7C(CO)OC(OC8C(CO)OC(OC9C(CO)OC(OC%10C(CO)OC(O)C(O)C%10O)C(O)C9O)C(O)C8O)C(O)C7O)C(O)C6O)C(O)C5O)C(O)C4O)C(O)C3O)C(O)C2O)C(O)C(O)C1O (stereo not given) [(Hex)10]

# Same assay, conditions: [M+H]+; instrument: DT; stepped-field
row,collision cross section (N2),Structure (SMILES)
1,318.3 Å²,CCC(C)[C@H](NC(=O)[C@@H](N)C(C)C)C(=O)N[C@@H](Cc1ccccc1)C(=O)N[C@@H](CC(C)C)C(=O)N[C@@H](CCC(=O)O)C(=O)N[C@@H](CC(N)=O)C(=O)N[C@@H](Cc1ccc(O)cc1)C(=O)N[C@@H](CCCNC(=N)N)C(=O)O (stereo not given in full) [VIFLENYR]
2,365.1 Å² and 390.3 Å²,OCC1OC(OC2C(CO)OC(OC3C(CO)OC(OC4C(CO)OC(OC5C(CO)OC(OC6C(CO)OC(OC7C(CO)OC(OC8C(CO)OC(OC9C(CO)OC(OC%10C(CO)OC(O)C(O)C%10O)C(O)C9O)C(O)C8O)C(O)C7O)C(O)C6O)C(O)C5O)C(O)C4O)C(O)C3O)C(O)C2O)C(O)C(O)C1O (stereo not given) [(Hex)10]

# Same assay, conditions: [M+K]+; instrument: DT; stepped-field
row,collision cross section (N2),Structure (SMILES)
1,293.3 Å²,OC[C@H]1O[C@H](O[C@H]2[C@H](O)[C@@H](O)[C@@H](O[C@H]3[C@H](O)[C@@H](O)[C@@H](O[C@H]4[C@H](O)[C@@H](O)[C@@H](O[C@H]5[C@H](O)[C@@H](O)[C@@H](O[C@H]6[C@H](O)[C@@H](O)[C@@H](O)O[C@@H]6CO)O[C@@H]5CO)O[C@@H]4CO)O[C@@H]3CO)O[C@@H]2CO)[C@H](O)[C@@H](O)[C@@H]1O [Maltohexaose]

# Same assay, conditions: [M+Na]+; instrument: DT; stepped-field
row,collision cross section (N2),Structure (SMILES)
1,286.4 Å²,OC[C@H]1O[C@H](O[C@H]2[C@H](O)[C@@H](O)[C@@H](O[C@H]3[C@H](O)[C@@H](O)[C@@H](O[C@H]4[C@H](O)[C@@H](O)[C@@H](O[C@H]5[C@H](O)[C@@H](O)[C@@H](O[C@H]6[C@H](O)[C@@H](O)[C@@H](O)O[C@@H]6CO)O[C@@H]5CO)O[C@@H]4CO)O[C@@H]3CO)O[C@@H]2CO)[C@H](O)[C@@H](O)[C@@H]1O [Maltohexaose]
2,311.5 Å²,CCCCC/C=C\C/C=C\C/C=C\C/C=C\CCCCCC(=O)O[C@H](COC(=O)CCCCCCCCC/C=C\CCCCCCCCCC)COP(=O)(O)OC[C@H](N)C(=O)O [PS(44:5)]
3,365.1 Å² and 373.8 Å²,OCC1OC(OC2C(CO)OC(OC3C(CO)OC(OC4C(CO)OC(OC5C(CO)OC(OC6C(CO)OC(OC7C(CO)OC(OC8C(CO)OC(OC9C(CO)OC(OC%10C(CO)OC(O)C(O)C%10O)C(O)C9O)C(O)C8O)C(O)C7O)C(O)C6O)C(O)C5O)C(O)C4O)C(O)C3O)C(O)C2O)C(O)C(O)C1O (stereo not given) [(Hex)10]
4,286.8 Å²,CCCCCCCCCCCCC=CC[C@@H](O)[C@H](CO[C@@H]1O[C@H](CO)[C@@H](O)C(O)C1O)NC(=O)CCCCCCCCCCCCCCCCCC (stereo not given in full) [GlcCer(37:1)]

# Same assay, conditions: [M]+; instrument: DT; stepped-field
row,collision cross section (N2),Structure (SMILES)
1,361.5 Å²,CCCCCCCCCCCCCCCC[N+](CCCCCCCCCCCCCCCC)(CCCCCCCCCCCCCCCC)CCCCCCCCCCCCCCCC [TAA16]
